This is an account of results in patent EP1837033A1, “REMEDY FOR DIABETES CONTAINING Cdk5 INHIBITOR” (Tomizawa, Kazuhito, priority 2004, dated 2006).

Experiment [1] concerns MIN6 cells. In words: Insulin secretion of MIN6 cells in KRB, radioimmunoassay (Example 4). In kind it is cell-based, rat. The following applies: for high-glucose-stimulated insulin secretion: preincubated 30 minutes, stimulated 1 hour with 16.7 mM glucose.
The subject of another experiment is islets of Langerhans. In words: Insulin secretion from isolated islets of Langerhans. In kind it is cell-based, rats. Particulars: for insulin secretion in islets of Langerhans (insulin secretion percentage): low glucose 3.3 mM, 200 nM glibenclamide, 10 µM olomoucine, fig. 5; for insulin secretion: 10 µM, Ringer solution with a high glucose concentration, fig. 4.

Another experiment deals with Cdk5 (Homo sapiens, UniProt Q00535). Particulars: cited from earlier work.
Cdk5, sequence (Q00535 whole entry, species assumed): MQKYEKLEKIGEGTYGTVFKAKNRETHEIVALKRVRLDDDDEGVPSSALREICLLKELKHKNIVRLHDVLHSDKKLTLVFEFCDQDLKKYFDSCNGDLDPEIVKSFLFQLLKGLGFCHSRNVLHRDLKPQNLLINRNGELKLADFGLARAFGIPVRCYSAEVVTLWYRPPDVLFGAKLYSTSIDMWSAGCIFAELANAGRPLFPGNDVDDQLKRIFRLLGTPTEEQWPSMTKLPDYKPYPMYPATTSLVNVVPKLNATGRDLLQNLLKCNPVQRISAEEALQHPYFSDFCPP
Cdk5, sequence (Q15078 whole entry partner, species assumed): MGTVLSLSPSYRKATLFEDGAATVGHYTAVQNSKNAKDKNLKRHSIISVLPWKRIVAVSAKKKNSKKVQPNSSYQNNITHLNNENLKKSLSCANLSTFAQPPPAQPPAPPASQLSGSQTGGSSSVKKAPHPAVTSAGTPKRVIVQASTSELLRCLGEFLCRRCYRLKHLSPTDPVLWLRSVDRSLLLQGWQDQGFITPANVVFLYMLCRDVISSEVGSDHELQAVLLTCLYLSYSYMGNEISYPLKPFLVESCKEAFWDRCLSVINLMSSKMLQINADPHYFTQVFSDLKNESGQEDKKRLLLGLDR
The test system of experiment [2] is MIN6 cells. In words: Insulin secretion of MIN6 cells in Ringer solution (Example 3). In kind it is cell-based, rat. Particulars: 17.6 mM glucose, 20 µM, 2 hours, fig. 3. On the procedure: MIN6 cells capable of secreting insulin (provided by Professor Susumu Seino, Doctral Program in Advanced Biomedical Applications, Department of Cellular and Molecular Medicine, Graduate School of Medicine, Chiba University, 1-33, Yayoi-cho, Inage-ku, Chiba-shi, Chiba, Japan) were cultured in accordance with the method of Mae et al. (American Journal of Physiological Endocrinal Metabolism, 2000, vol. […], pp. 773 to 781). MIN6 cells (5 × 10^5) were in a DMEM medium (GIBCO) and on a 35-mm culture dish (Corning Incorporated), followed by culture for 2 days in an incubator (5% CO2, SANYO).
After culture for 2 hours, insulin contained in medium was detected using an insulin detection kit (Ab Insulin, Eiken Chemical Co., Ltd.) in accordance with protocols for the kit.

For experiment [3], the system named is MIN6 cells. In words: Ca2+ imaging (fura-2) in MIN6 cells. In kind it is cell-based, rat. The following applies: 50 µM olomoucine. The protocol:
MIN6 cells were cultured in a DMEM containing 15% fetal bovine serum, 25 mM glucose, […] 2-mercaptoethanol, and 2 mM glutamine (Lilla, V. et al. Endocrinology 144, 1368-1379 (2003); and Minami, K. et al. Am. J. Physiol. Endocrinol. Metab. 279, 773-781 (2000)). The cells (1 × 10^6) were seeded on a 35-mm glass bottom dish (IWAKI, Tokyo, Japan), followed by cell proliferation for 48 hours. For Ca^2+ imaging, the cells were preincubated at 37°C for 2 hours in a modified Krebs-Ringer bicarbonate HEPES buffer solution (KRB: 125 mM Nacl, 4.74 mM KCl, 1 mM CaCl2, […] KH2PO4, 5 mM NaHCO3, 25 mM HEPES (pH 7.4), and 0.1% BSA) containing 2.8 mM glucose. […] The resulting solution was replaced with KRB containing 17.6 mM glucose or KRB containing 100 nM glibenclamide. The Ca^2+ level of the cells was using an Axiovert 200 inverted microscope (Carl Zeiss Microlmaging) by a dual excitation wavelength method (340/380).
After washing, the cells were stimulated with 17.6 mM glucose (figs. 7a-1 and 7a-2) or 100 nM glibenclamide (figs. 7b-1 and 7b-2). Ca^2+ concentrations were presented as percentages of 340/380 nm fluorescent emission. The graphs (fgs. 7a-1 and 7b-1) show representative traces of changes in Ca^2+ concentration. The graphs (figs. 7a-2 and 7b-2) show the maximum Ca^2+ influxes. Data for each of 20 to 30 cells were collected after each experiment. The mean value of the total values was calculated and normalized every 3 to 4 experiments (*P < 0.01).

A further experiment concerns L-VDCC. In words: Whole-cell Ca2+ currents via VDCCs of MIN6 cells (electrophysiology). The following applies: 50 µM olomoucine. Type of experiment: cell-based, rat.
The test system of experiment [4] is α1C subunit at Ser783 of L-VDCC. In words: Phosphorylation of Ser783 of the L-VDCC α1C subunit in MIN6 cells (immunoprecipitation, Western blotting). Type of experiment: cell-based, rat. Particulars: MIN6 cells treated with 50 µM olomoucine, fig. 8d. On the procedure:
Recombinant cDNA encoding LoopII·III of a human α1C subunit of VDCC was subcloned into pGEX6P (Amersham Bioscience). Serine783 was mutated into alanine according to the manufacturer's instructions (Stratagene). Purified recombinant proteins were phosphorylated in vitro with the use of Cdk5/p35 (Upstate) by a conventional method (Tomizawa, K. et al. J. Cell. Biol. 163, 813-824 (2003)). […] The expression of the phosphorylated α1C subunit at Ser783 was measured using phosphorylation-specific antibodies obtained from serum of a rabbit to which CLARTApSPEKK peptide had been injected. The total amount of the subunits was detected by Western blotting analysis with the use of anti-α1C subunit antibodies (Chemicon).
Immunoprecipitation of Cav1.2 was carried out. Phosphorylation of serine 783 was measured by Western blotting.

In experiment [5] the test system is diabetes mouse models KK-Ay. In words: Hypoglycemic effects in diabetes mouse models KK-Ay. Type of experiment: in vivo. Particulars: KK-Ay mice, fig. 13. The protocol: 8-week-old ale KK-Ay mice (32 individuals, CLEA Japan, Inc.) were divided into groups (8 individuals each) with the proviso that there would be no differences among groups in terms of blood glucose levels, Hypoglycemic effects of roscovitine (LC Laboratories), which is a CDK5 inhibitor, were examined.
In order to prepare roscovitine at doses of 1 mg/kg, 10 mg/kg, and 100 mg/kg, a suspension (0.5% methylcellulose/physiological saline solution) was used. Then, subcutaneous administration of roscovitine was carried out once daily for 2 consecutive weeks. A solvent alone was administered to a control group. Blood glucose levels were measured one day before day 0 and on days 3, 7, 10, and 14 with the use of a blood glucose monitor (Free Style, NIPRO).
In fig. 13, the unit of the vertical axis is indicated by "mg/dL." In fig. 14, the unit of the vertical axis is indicated by "g."

Procedure for islets of Langerhans: In accordance with Goto et al. (Transplantaion, vol. 43, pp. 725 to 730, 1987), islets of Langerhans were isolated from 6-week-old male Wister rats. The rats were etherized so as to be subjected to thoracotomy. The common bile duct of each rat was removed and a collagenase solution (320 U/ml, Sigma) was slowly injected into the pancreas. Then, the swollen pancreas was excised. The collagenase-containing pancreas was digested at 37°C in a water bath for 30 minutes, followed by dispersion with the use of a pipet. Thereafter, islets of Langerhans were isolated based on the concentration gradient of a Ficoll solution (Amersham Pharmacia). The islets of Langerhans were incubated while being kept at 37°C for 30 minutes in a Ringer solution (119 mM sodium chloride, 4.74 mM potassium chloride, 1.19 mM sodium dihydrogen phosphate, 25 mM sodium bicarbonate, 10 mM HEPES, 2.54 mM calcium chloride, 1.19 mM magnesium chloride, and 0.2% BSA) saturated with a mixed gas of 95% O2 and 5% CO2.
30 minutes after replacement, insulin contained in each stimulation solution was detected using an insulin detection kit (Ab Bead Insulin, Eiken Chemical Co., Ltd.) in accordance with protocols of the kit. The experiment was conducted for each concentration group (n = 6).
30 minutes after replacement, insulin contained in each stimulation solution was using an insulin detection kit (Ab Bead Insulin, Eiken Chemical Co., Ltd.) in accordance with protocols for the kit.
Then, controls (n = 6), samples A (n = 6), samples B (n = 6), and samples C (n = 6) were prepared. […] Further, islets of Langerhans were subjected to ultrasonication for cell disruption, and insulin contents of islets of Langerhans were detected using an insulin detection kit (Ab Bead Insulin, Eiken Chemical Co., Ltd.) in accordance with protocols for the kit in a manner similar to that used above.
In addition, the insulin secretion percentage was calculated by the following formula. Insulin secretion percentage; = (Amount of insulin secreted(μU/ml))/(Amount of insulin in islets of Langerhans(μU/ml)) × 100(%) [formula]

Turning to `COc1ccc(Cl)cc1C(=O)NCCc1ccc(S(=O)(=O)NC(=O)NC2CCCCC2)cc1` [glibenclamide], the insulin secretion is reported as 412.5 ± 35.7 µg/h with MIN6 cells [1] (KRB high glucose 17.6 mM, fig. 6f) and 116.3 ± 1.0 µg/h in the experiment with MIN6 cells [1] (KRB low glucose 2.8 mM, fig. 6e). Further, the “insulin secretion in islets of Langerhans (insulin secretion percentage)” value in the experiment with islets of Langerhans (30 minutes) was “significant increase in insulin secretion”.

On to `CC1=NS(=O)(=O)c2cc(Cl)ccc2N1` [diazoxide], for which the “Olomoucine-dependant promotion of high-glucose-stimulated insulin secretion” value in the experiment with MIN6 cells [1] (100 µM diazoxide, 50 µM olomoucine, 17.6 mM glucose, fig. 6g) is recorded as “completely suppressed”.

In the experiment with MIN6 cells [1] (10 µM forskolin, 50 µM olomoucine, KRB 2.8 mM glucose, fig. 6h, unit not given), `C=C[C@@]1(C)CC(=O)[C@]2(O)[C@@]3(C)[C@@H](O)CCC(C)(C)[C@@H]3[C@H](O)[C@H](OC(C)=O)[C@@]2(C)O1` [forskolin] displayed a forskolin-stimulated insulin secretion of 122.7 ± 9.3.

For the compound iso-olomoucine, on Cdk5, the Cdk5 inhibitory effect entry was “does not have a Cdk5 inhibitory effect”. Besides, the insulin secretion entry with MIN6 cells [1] (20 µM, fig. 6d) is “did not influence insulin secretion”; in the experiment on islets of Langerhans, “did not promote insulin secretion at all”.

For the compound `Cn1cnc2c(NCc3ccccc3)nc(NCCO)nc21` [olomoucine], the “insulin secretion of MIN6 cells” value with MIN6 cells [2] is “action of promoting insulin secretion”. Moreover, in the experiment on MIN6 cells [1] (2.8 mM glucose, 1 hour, fig. 6c), the “insulin secretion under low glucose conditions” value was “insulin secretion was not promoted”. Besides, in the experiment with MIN6 cells [1] (effect of 50 µM olomoucine, 10 µM forskolin, 2.8 mM glucose, P > 0.05, fig. 6h), the “insulin secretion induced by forskolin” value is recorded as “did not influence”. In addition, the “insulin secretion induced by glibenclamide” value in the experiment on MIN6 cells [1] (effect of olomoucine, low glucose 2.8 mM, fig. 6e) is given as “significantly promoted”. The high-glucose-stimulated insulin secretion entry in the experiment on MIN6 cells [1] (fig. 6c) was “promoted high-glucose-stimulated insulin secretion in a dose-dependent manner”. For the same compound, in the experiment with MIN6 cells [3], the “Ca2+ influxes in the absence of glucose and glibenclamide” value is listed as “did not influence”. Also, the “Ca2+ influxes induced by glibenclamide” value with MIN6 cells [3] (100 nM glibenclamide, maximum Ca2+ influx normalized, figs. 7b-1 and 7b-2) came out at 129 ± 4.5%. Besides, in the experiment on MIN6 cells [3] (17.6 mM glucose, maximum Ca2+ influx normalized, figs. 7a-1 and 7a-2), the “Ca2+ influxes induced by glucose” value is 114.4 ± 2.1%. Further, the “Peak Ca2+ currents” value in the experiment on L-VDCC (depolarization to 10 mV, control cells -15.1 ± 1.67 A/F) is reported as -20.1 ± 1.59 A/F. For the same compound, the “inward Ca2+ currents” value with L-VDCC (step pulses from -40 mV to +60 mV, fig. 7c) is reported as “enhanced inward Ca^2+ currents”. For the same compound, in the experiment on islets of Langerhans, the insulin secretion entry is reported as “significantly promoted insulin secretion”. In the experiment with islets of Langerhans (3.3 mM glucose (low), olomoucine at different concentrations, 30 minutes, fig. 1), the “insulin secretion of islets of Langerhans” value is on record as “had no influence at all”. For the same compound, the insulin secretion levels entry in the experiment with islets of Langerhans (17.3 mM glucose (high), olomoucine at different concentrations, 30 minutes, versus absence of olomoucine, fig. 2) is recorded as “significantly increased”. Also, the “secretion at low glucose levels” value in the experiment on islets of Langerhans (isolated islets of Langerhans, fig. 9a) was “did not influence”. Further, the “insulin secretion in islets of Langerhans (insulin secretion percentage)” value in the experiment with islets of Langerhans (30 minutes) is listed as “did not influence insulin secretion”. The “glucose-stimulated insulin secretion in isolated islets of Langerhans” value in the experiment on islets of Langerhans (olomoucine at concentrations shown in fig. 9a) is on record as “promoted glucose-stimulated insulin secretion in a dose-dependent manner”. Besides, the “phosphorylation of Ser783” value in experiment [4] is “decrease in phosphorylation”.

Take `CC[C@H](CO)Nc1nc(NCc2ccccc2)c2ncn(C(C)C)c2n1` [roscovitine]: in the experiment with MIN6 cells [2], the “insulin secretion of MIN6 cells” value is listed as “promoted”. Further, in the experiment on MIN6 cells [1] (fig. 6c), the high-glucose-stimulated insulin secretion entry is “also confirmed”. Also, the blood glucose levels result in experiment [5] (1 mg/kg subcutaneous once daily for 2 consecutive weeks) is given as “obvious hypoglycemic effects were not observed”; in experiment [5] (10 mg/kg subcutaneous once daily for 2 consecutive weeks) it was “obvious hypoglycemic effects were not observed”; in experiment [5] (100 mg/kg subcutaneous once daily for 2 consecutive weeks), “statistically significant decreases”.
